Reference: the NIST ThermoML archive (doi:10.1016/j.jct.2005.01.002)
± gives the expanded uncertainty stated by the source.

Experiment: xn = mol fraction of the nth substance listed
Details: 101 kPa, Liquid

CCCCCOCCCCC [dipentyl ether] + CN(C)C=O
mass density [kg/m3]
Details | 298.15 K | 313.15 K | 328.15 K | 343.15 K | 358.15 K
x2 = 0.0416 | 781.66 ± 0.59 | 771.34 ± 0.6 | 759.02 ± 0.61 | 746.76 ± 0.62 | 734.14 ± 0.64
x2 = 0.1163 | 787.12 ± 0.57 | 776.77 ± 0.58 | 764.39 ± 0.59 | 752.03 ± 0.61 | 739.41 ± 0.62
x2 = 0.1609 | 790.65 ± 0.56 | 780.27 ± 0.57 | 767.84 ± 0.58 | 755.43 ± 0.59 | 742.78 ± 0.61
x2 = 0.217 | 795.39 ± 0.54 | 784.95 ± 0.55 | 772.41 ± 0.57 | 759.94 ± 0.58 | 747.25 ± 0.59
x2 = 0.2456 | 797.91 ± 0.54 | 787.44 ± 0.55 | 774.88 ± 0.56 | 762.38 ± 0.57 | 749.67 ± 0.59
x2 = 0.3011 | 803.14 ± 0.52 | 792.61 ± 0.53 | 779.97 ± 0.55 | 767.39 ± 0.56 | 754.63 ± 0.57
x2 = 0.3542 | 808.53 ± 0.51 | 797.94 ± 0.52 | 785.21 ± 0.53 | 772.57 ± 0.54 | 759.74 ± 0.56
x2 = 0.4097 | 814.65 ± 0.49 | 803.99 ± 0.5 | 791.14 ± 0.52 | 778.42 ± 0.53 | 765.54 ± 0.55
x2 = 0.457 | 820.29 ± 0.48 | 809.57 ± 0.49 | 796.61 ± 0.5 | 783.81 ± 0.52 | 770.89 ± 0.53
x2 = 0.5002 | 825.83 ± 0.46 | 815.04 ± 0.48 | 801.98 ± 0.49 | 789.12 ± 0.51 | 776.12 ± 0.52
x2 = 0.5187 | 828.35 ± 0.46 | 817.52 ± 0.47 | 804.42 ± 0.49 | 791.51 ± 0.5 | 778.49 ± 0.52
x2 = 0.5486 | 832.57 ± 0.45 | 821.67 ± 0.46 | 808.5 ± 0.48 | 795.54 ± 0.49 | 782.47 ± 0.51
x2 = 0.6123 | 842.35 ± 0.42 | 831.31 ± 0.44 | 817.97 ± 0.45 | 804.87 ± 0.47 | 791.69 ± 0.49
x2 = 0.6525 | 849.15 ± 0.41 | 837.99 ± 0.42 | 824.54 ± 0.44 | 811.37 ± 0.46 | 798.06 ± 0.47
x2 = 0.7141 | 860.63 ± 0.39 | 849.31 ± 0.4 | 835.68 ± 0.42 | 822.37 ± 0.43 | 808.9 ± 0.45
x2 = 0.7678 | 872.03 ± 0.36 | 860.55 ± 0.38 | 846.65 ± 0.39 | 833.17 ± 0.41 | 819.65 ± 0.43
x2 = 0.8272 | 886.29 ± 0.33 | 874.58 ± 0.35 | 860.43 ± 0.37 | 846.76 ± 0.39 | 833.11 ± 0.4
x2 = 0.8585 | 894.75 ± 0.32 | 882.91 ± 0.33 | 868.61 ± 0.35 | 854.86 ± 0.37 | 840.93 ± 0.39
x2 = 0.9152 | 911.86 ± 0.29 | 899.77 ± 0.3 | 885.03 ± 0.32 | 871.15 ± 0.34 | 857.02 ± 0.36
x2 = 0.9534 | 924.96 ± 0.26 | 912.63 ± 0.28 | 897.96 ± 0.3 | 883.55 ± 0.32 | 869.17 ± 0.34

CCCOCCC [dipropyl ether] + CN(C)C=O
mass density [kg/m3]
Details | 298.15 K | 313.15 K | 328.15 K | 343.15 K | 358.15 K
x2 = 0.0499 | 749.01 ± 0.62 | 735.06 ± 0.63 | 720.89 ± 0.65 | 706.81 ± 0.66 | 692.16 ± 0.68
x2 = 0.1072 | 756.74 ± 0.6 | 742.84 ± 0.62 | 728.72 ± 0.63 | 714.64 ± 0.65 | 699.96 ± 0.66
x2 = 0.1515 | 763.14 ± 0.59 | 749.17 ± 0.6 | 735.12 ± 0.62 | 720.81 ± 0.63 | 706.1 ± 0.65
x2 = 0.2129 | 772.12 ± 0.57 | 758.15 ± 0.58 | 743.94 ± 0.6 | 729.67 ± 0.61 | 714.89 ± 0.63
x2 = 0.2528 | 778.22 ± 0.56 | 764.23 ± 0.57 | 749.93 ± 0.59 | 735.72 ± 0.6 | 720.91 ± 0.62
x2 = 0.3142 | 787.82 ± 0.54 | 773.92 ± 0.55 | 759.52 ± 0.57 | 745.25 ± 0.58 | 730.4 ± 0.6
x2 = 0.3508 | 793.89 ± 0.52 | 780 ± 0.54 | 765.58 ± 0.56 | 751.24 ± 0.57 | 736.39 ± 0.59
x2 = 0.3895 | 800.55 ± 0.51 | 786.59 ± 0.53 | 772.07 ± 0.54 | 757.74 ± 0.56 | 742.88 ± 0.58
x2 = 0.4353 | 808.57 ± 0.5 | 794.67 ± 0.51 | 780.13 ± 0.53 | 765.72 ± 0.55 | 750.85 ± 0.56
x2 = 0.4788 | 816.49 ± 0.48 | 802.63 ± 0.5 | 788.03 ± 0.51 | 773.58 ± 0.53 | 758.7 ± 0.55
x2 = 0.5053 | 821.46 ± 0.47 | 807.64 ± 0.49 | 793.01 ± 0.51 | 778.54 ± 0.52 | 763.66 ± 0.54
x2 = 0.5243 | 825.12 ± 0.47 | 811.32 ± 0.48 | 796.66 ± 0.5 | 782.18 ± 0.52 | 767.29 ± 0.53
x2 = 0.5454 | 829.23 ± 0.46 | 815.46 ± 0.47 | 800.8 ± 0.49 | 786.3 ± 0.51 | 771.4 ± 0.53
x2 = 0.6019 | 840.66 ± 0.43 | 826.99 ± 0.45 | 812.28 ± 0.47 | 797.75 ± 0.48 | 782.85 ± 0.5
x2 = 0.6475 | 850.32 ± 0.41 | 836.74 ± 0.43 | 821.98 ± 0.45 | 807.43 ± 0.47 | 792.53 ± 0.48
x2 = 0.7054 | 863.22 ± 0.39 | 849.75 ± 0.4 | 834.83 ± 0.42 | 820.5 ± 0.44 | 805.64 ± 0.46
x2 = 0.7502 | 873.74 ± 0.36 | 860.32 ± 0.38 | 845.39 ± 0.4 | 830.97 ± 0.42 | 816.13 ± 0.44
x2 = 0.79 | 883.5 ± 0.34 | 870.11 ± 0.36 | 854.95 ± 0.38 | 840.56 ± 0.4 | 825.74 ± 0.42
x2 = 0.8514 | 899.37 ± 0.31 | 886.42 ± 0.33 | 871.19 ± 0.35 | 856.91 ± 0.37 | 842.07 ± 0.39
x2 = 0.9075 | 914.86 ± 0.28 | 902.16 ± 0.3 | 886.61 ± 0.32 | 872.33 ± 0.34 | 857.58 ± 0.36
x2 = 0.9594 | 933.76 ± 0.25 | 921.32 ± 0.27 | 905.81 ± 0.29 | 891.47 ± 0.31 | 876.94 ± 0.33
